Assay results from ChEMBL document CHEMBL5576067, “Synthesis and biological evaluation of novel 1,2,3,4-tetrahydro-β-carboline derivatives as potential antibacterial agents” (Bioorg Med Chem Lett, 2024).
≈ marks a conversion by molar mass, not a printed value.

Columns and labels:
Format in all cases: functional
Staphylococcus aureus [1] = test: Antibacterial activity against Staphylococcus aureus ATCC25923 assessed as inhibition of bacterial growth incubated for 24 hrs by broth microdilution method
Staphylococcus aureus [2] = test: Antibacterial activity against methicillin resistant Staphylococcus aureus ATCC33591 assessed as inhibition of bacterial growth incubated for 24 hrs by broth microdilution method
Enterococcus faecium = test: Antibacterial activity against vancomycin-resistant Enterococcus faecium ATCC 700221 assessed as inhibition of bacterial growth incubated for 24 hrs by broth microdilution method
Escherichia coli = test: Antibacterial activity against Escherichia coli ATCC25922 assessed as inhibition of bacterial growth incubated for 24 hrs by broth microdilution method
Ralstonia solanacearum = test: Antibacterial activity against Ralstonia solanacearum assessed as inhibition of bacterial growth incubated for 24 hrs by broth microdilution method
[3] = Antibacterial activity against Pseudomonas syringae pv. actinidiae assessed as inhibition of bacterial growth incubated for 24 hrs by broth microdilution method

SMILES | MIC (Staphylococcus aureus [1]) | MIC (Staphylococcus aureus [2]) | MIC (Enterococcus faecium) | MIC (Escherichia coli) | MIC (Ralstonia solanacearum) | MIC [3]
CN1CCc2c([nH]c3ccccc23)C1c1ccc(NC(=O)c2cccc(Cl)c2)cc1 (stereo not given) | 16 mg/L (≈ 38.5 µM) | 8 mg/L (≈ 19.2 µM) | > 128 mg/L | 16 mg/L (≈ 38.5 µM) | 16 mg/L (≈ 38.5 µM) | 64 mg/L (≈ 154 µM)
CN1CCc2c([nH]c3ccccc23)C1c1ccc(NC(=O)c2ccc(Br)cc2)cc1 (stereo not given) | 32 mg/L (≈ 69.5 µM) | 32 mg/L (≈ 69.5 µM) | > 128 mg/L | 32 mg/L (≈ 69.5 µM) | 32 mg/L (≈ 69.5 µM) | 64 mg/L (≈ 139 µM)
CN1CCc2c([nH]c3ccccc23)C1c1ccc(NC(=O)c2ccc(F)cc2)cc1 (stereo not given) | 4 mg/L (≈ 10 µM) | 8 mg/L (≈ 20 µM) | > 128 mg/L | 16 mg/L (≈ 40.1 µM) | 16 mg/L (≈ 40.1 µM) | 128 mg/L (≈ 320 µM)
COC(=O)c1ccc(C(=O)Nc2ccc(C3c4[nH]c5ccccc5c4CCN3C)cc2)cc1 (stereo not given) | 64 mg/L (≈ 146 µM) | 32 mg/L (≈ 72.8 µM) | > 128 mg/L | 128 mg/L (≈ 291 µM) | 128 mg/L (≈ 291 µM) | 32 mg/L (≈ 72.8 µM)
O=C(Nc1ccc(C2NCCc3c2[nH]c2ccccc32)cc1)c1cccc(Cl)c1 (stereo not given) | 16 mg/L (≈ 39.8 µM) | 8 mg/L (≈ 19.9 µM) | > 128 mg/L | 8 mg/L (≈ 19.9 µM) | 8 mg/L (≈ 19.9 µM) | 64 mg/L (≈ 159 µM)
O=C(Nc1ccc(C2NCCc3c2[nH]c2ccccc32)cc1)c1cccc(C(F)(F)F)c1 (stereo not given) | 8 mg/L (≈ 18.4 µM) | 4 mg/L (≈ 9.19 µM) | 128 mg/L (≈ 294 µM) | 8 mg/L (≈ 18.4 µM) | 16 mg/L (≈ 36.7 µM) | 32 mg/L (≈ 73.5 µM)
CN1CCc2c([nH]c3ccccc23)C1c1ccc(NC(=O)c2ccc([N+](=O)[O-])cc2)cc1 (stereo not given) | 32 mg/L (≈ 75 µM) | 16 mg/L (≈ 37.5 µM) | > 128 mg/L | 32 mg/L (≈ 75 µM) | 32 mg/L (≈ 75 µM) | 32 mg/L (≈ 75 µM)
CN1CCc2c([nH]c3ccccc23)C1c1ccc(NC(=O)c2ccc(F)c(C(F)(F)F)c2)cc1 (stereo not given) | 16 mg/L (≈ 34.2 µM) | 8 mg/L (≈ 17.1 µM) | > 128 mg/L | 16 mg/L (≈ 34.2 µM) | 16 mg/L (≈ 34.2 µM) | 64 mg/L (≈ 137 µM)
CN1CCc2c([nH]c3ccccc23)C1c1ccc(NC(=O)c2cccc(C(F)(F)F)c2)cc1 (stereo not given) | 32 mg/L (≈ 71.2 µM) | 32 mg/L (≈ 71.2 µM) | > 128 mg/L | 32 mg/L (≈ 71.2 µM) | 16 mg/L (≈ 35.6 µM) | 32 mg/L (≈ 71.2 µM)
CN1CCc2c([nH]c3ccccc23)C1c1ccc(NC(=O)c2ccc(C(F)(F)F)cc2)cc1 (stereo not given) | 8 mg/L (≈ 17.8 µM) | 8 mg/L (≈ 17.8 µM) | 128 mg/L (≈ 285 µM) | 16 mg/L (≈ 35.6 µM) | 16 mg/L (≈ 35.6 µM) | 32 mg/L (≈ 71.2 µM)
O=C(Nc1ccc(C2NCCc3c2[nH]c2ccccc32)cc1)c1cccc([N+](=O)[O-])c1 (stereo not given) | 8 mg/L (≈ 19.4 µM) | 16 mg/L (≈ 38.8 µM) | > 128 mg/L | 16 mg/L (≈ 38.8 µM) | 16 mg/L (≈ 38.8 µM) | 32 mg/L (≈ 77.6 µM)
O=C(Nc1ccc(C2NCCc3c2[nH]c2ccccc32)cc1)c1ccccc1 (stereo not given) | 128 mg/L (≈ 348 µM) | 128 mg/L (≈ 348 µM) | > 128 mg/L | 64 mg/L (≈ 174 µM) | 32 mg/L (≈ 87.1 µM) | 32 mg/L (≈ 87.1 µM)
CN1CCc2c([nH]c3ccccc23)C1c1ccc(NC(=O)c2cc(C(F)(F)F)cc(C(F)(F)F)c2)cc1 (stereo not given) | 16 mg/L (≈ 30.9 µM) | 32 mg/L (≈ 61.8 µM) | > 128 mg/L | 128 mg/L (≈ 247 µM) | 128 mg/L (≈ 247 µM) | > 128 mg/L
CN1CCc2c([nH]c3ccccc23)C1c1ccc(NC(=O)c2ccccc2F)cc1 (stereo not given) | 64 mg/L (≈ 160 µM) | 32 mg/L (≈ 80.1 µM) | > 128 mg/L | 64 mg/L (≈ 160 µM) | 128 mg/L (≈ 320 µM) | 32 mg/L (≈ 80.1 µM)
O=C(Nc1ccc(C2NCCc3c2[nH]c2ccccc32)cc1)c1ccc([N+](=O)[O-])cc1 (stereo not given) | 8 mg/L (≈ 19.4 µM) | 4 mg/L (≈ 9.7 µM) | > 128 mg/L | 8 mg/L (≈ 19.4 µM) | 8 mg/L (≈ 19.4 µM) | 32 mg/L (≈ 77.6 µM)
